Data from publication PMC5845869 (Frontiers in Microbiology, 2018).
Converted amounts (≈) assume the structure as drawn. Like-named read-outs stand apart in the source and are kept apart here. Ends that are not written are not given here. Peptide text beside a SMILES is read from it.

Tests used:
Candida glabrata CBS 138 = assay: MIC, broth microdilution in LCM; format: cell-based; conditions: 10^5 cells ml^−1, 48 h, 30°C, MIC = growth ≤ 5% (OD620)
Protocol: (§1) Susceptibility tests were performed in low ionic strength broth medium (LCM: 0.5% glucose, 0.25% yeast extract, 0.0125% peptone (w/v)) and in RPMI 1640 medium (Sigma-Aldrich, St Louis, MO, USA) supplemented with 0.03% (w/v) L-glutamine and buffered to pH 7.0 with 0.165 M 4-morpholinopropanesulfonic acid (Sigma-Aldrich, St Louis, MO, USA).
(§2) Antifungal susceptibility tests were performed with nNFAP2, rNFAP2, and sNFAP2 and its peptide fragments in LCM medium against yeast isolates (10^5 cells ml^−1) according to the broth microdilution method described by Tóth et al. ([2016]). Final drug concentration ranged from 25 to 0.098 μg ml^−1 for rNFAP2 and sNFAP2, and from 100 to 6.25 μg ml^−1 for the synthetic peptide fragments. The rNFAP2 was tested against nine yeast isolates, while the sNFAP2 and the synthetic peptide fragments against C. albicans ATCC 10231, C. krusei CBS 573, C. parapsilosis CBS 604, and S. cerevisiae SZMC 0644.
(§3) LCM plates were incubated at 30°C, while RPMI 1640 plates at 35°C for 48 h without shaking, then the absorbance (OD620) was measured with a microtiter plate reader (SPECTROstar Nano, BMG Labtech, Ortenberg, Germany) after resuspension of the cultures with pipette. The absorbance of the untreated control cultures was referred to 100% growth in each case.
(§4) All susceptibility tests were repeated at least two times in three replicates.

[1] = test system: Candida guilliermondii CBS 566; assay: MIC, broth microdilution in LCM; format: cell-based; conditions: 10^5 cells ml^−1, 48 h, 30°C, MIC = growth ≤ 5% (OD620)
Protocol: as §1, §2, §3, §4

[2] = test system: Candida lusitaniae CBS 6936; assay: MIC, broth microdilution in LCM; format: cell-based; conditions: 10^5 cells ml^−1, 48 h, 30°C, MIC = growth ≤ 5% (OD620)
Protocol: as §1, §2, §3, §4

[3] = test system: Candida tropicalis CBS 94; assay: MIC, broth microdilution in LCM; format: cell-based; conditions: 10^5 cells ml^−1, 48 h, 30°C, MIC = growth ≤ 5% (OD620)
Protocol: as §1, §2, §3, §4

[4] = test system: Schizosaccharomyces pombe SZMC 0142; assay: MIC, broth microdilution in LCM; format: cell-based; conditions: 10^5 cells ml^−1, 48 h, 30°C, MIC = growth ≤ 5% (OD620)
Protocol: as §1, §2, §3, §4

[5] = test system: Candida albicans ATCC 10231
Protocol: as §1, §2, §3, §4

Candida krusei CBS 573 = test system: Candida krusei CBS 573
Protocol: as §1, §2, §3, §4

[6] = test system: Candida parapsilosis CBS 604
Protocol: as §1, §2, §3, §4

[7] = test system: Saccharomyces cerevisiae SZMC 0644
Protocol: as §1, §2, §3, §4

[8] = Thermal unfolding followed by ECD spectroscopy; format: physicochemical; conditions: for thermal denaturation reversibility: ECD at 95°C, then re-measured after cooling, 5 min at 25°C; for Tm (melting temperature of the native protein structure): ECD at 228 nm, 25 to 95°C at 1°C min^−1, approx. 0.1 mg ml^−1 in H2O, inflection of sigmoidal fit; for native fold remains intact up to: thermal unfolding followed by ECD
Protocol: ECD spectroscopic measurements were performed using a Jasco-J815 spectropolarimeter (JASCO Corporation, Tokyo, Japan), in the far-UV range (185–260 nm). Protein samples were dissolved in pure H2O in approximately 0.1 mg ml^−1 concentration and measured in a 0.1 cm pathlength quartz cuvette. First, ECD spectra of samples were recorded at 25°C with a scan speed of […]. […] The system was allowed to equilibrate for 1 min before measurements were taken at each temperature point.
The obtained melting curves were fitted with an inverse sigmoidal function of which inflection point designated the melting temperature (Tm) of the native protein structure.
ECD spectra were also recorded at 95°C, the final temperature of the thermal unfolding experiments, then samples were allowed to cool and measured again after 5 min of equilibration at 25°C. The reported spectra are accumulations of 10 scans, from which the similarly recorded, corresponding solvent spectrum was subtracted. Data are given as molar ellipticities. Accurate protein sample concentrations for the corrections of ECD spectra were determined using analytical RP-HPLC.

[9] = test system: C. albicans ATCC 10231 cells; assay: Propidium iodide (PI) staining, plasma membrane disruption; format: cell-based, Candida albicans; conditions: treatment at MIC in LCM, 10 min, 30°C; 5 μg ml^−1 PI; fluorescence microscopy
Protocol: After the treatment, cells were washed with LCM, and then stained with 5 μg ml^−1 PI for 10 min at room temperature in the dark, and then they were washed again with LCM and resuspended in final volume of 100 μl LCM. Cells treated with 70% (v/v) ethanol for 10 min at 4°C were used as positive staining control. Untreated cells were used as negative staining control.
Yeast cells were visualized by light and fluorescence microscopy (Carl Zeiss Axiolab LR 66238C; Zeiss, Oberkochen, Germany) and photographed with a microscope camera (Zeiss AxioCam ERc 5s; Zeiss, Oberkochen, Germany).

[10] = LCM, 10^5 cells ml^−1, 48 h, 30°C, MIC = growth ≤ 5% (OD620)

Row | Compound | Plasma membrane disruption (PI staining) [9] | MIC ([5]; ATCC 10231, 48 h) [µg/mL] | MIC (Candida krusei CBS 573; CBS 573, 48 h) [µg/mL] | MIC ([6]; CBS 604, 48 h) [µg/mL] | MIC ([7]; SZMC 0644, 48 h) [µg/mL] | also measured
1 | IATSPYYACNCPNNCKHKKGSGCKYHSGPSDKSKVISGKCEWQGGQLNCIAT (disulfide (positions not given here)) [nNFAP2] | – | – | – | – | – | MIC (Candida glabrata CBS 138): 1.56 µg/mL; MIC [1]: 1.56 µg/mL; MIC [2]: 3.125 µg/mL; MIC [3]: 1.56 µg/mL; MIC [4]: 1.56 µg/mL; MIC [5, 10]: 6.25 µg/mL; MIC (Candida krusei CBS 573; [10]): 12.5 µg/mL; MIC [6, 10]: 1.56 µg/mL; MIC [7, 10]: 3.125 µg/mL; thermal denaturation reversibility [8]: reversible; Tm (melting temperature of the native protein structure) [8]: 72.92 °C; native fold remains intact up to [8]: approximately 70 °C
2 | CC[C@H](C)[C@H](N)C(=O)N[C@@H](C)C(=O)NCC(=O)N[C@@H](C)C(=O)N[C@@H](Cc1c[nH]cn1)C(=O)N[C@@H](CCCCN)C(=O)N[C@@H](CS)C(=O)N[C@@H](CCCCN)C(=O)N1CCC[C@H]1C(=O)N[C@@H](CS)C(=O)N[C@@H](Cc1ccc(O)cc1)C(=O)NCC(=O)N[C@@H](Cc1ccc(O)cc1)C(=O)N[C@@H](CCCCN)C(=O)N[C@H](C(=O)N[C@@H](CC(N)=O)C(=O)N[C@@H](CO)C(=O)N[C@@H](CS)C(=O)N[C@@H](CS)C(=O)N[C@@H](CC(N)=O)C(=O)N[C@@H](CO)C(=O)N1CCC[C@H]1C(=O)N[C@@H](CC(N)=O)C(=O)O)[C@@H](C)O [Sh-Fr-2] (H-IAGAHKCKPCYGYKTNSCCNSPN-OH; N-terminus and C-terminus assumed) | prompt plasma membrane disruption effect | – | – | – | – | –
3 | CC[C@H](C)[C@H](N)C(=O)N[C@@H](C)C(=O)N[C@H](C(=O)N[C@@H](CO)C(=O)N1CCC[C@H]1C(=O)N[C@@H](Cc1ccc(O)cc1)C(=O)N[C@@H](Cc1ccc(O)cc1)C(=O)N[C@@H](C)C(=O)N[C@@H](CS)C(=O)N[C@@H](CC(N)=O)C(=O)N[C@@H](CS)C(=O)N1CCC[C@H]1C(=O)O)[C@@H](C)O [Fr-6] (H-IATSPYYACNCP-OH; N-terminus and C-terminus assumed) | – | >100 | >100 | >100 | >100 | –
4 | IATSPYYACNCPNNCKHKKGSGCKYHSGPSDKSKVISGKCEWQGGQLNCIAT (disulfide (positions not given here)) [sNFAP2] | – | – | – | – | – | MIC [5, 10]: 6.25 µg/mL; MIC (Candida krusei CBS 573; [10]): 12.5 µg/mL; MIC [6, 10]: 1.56 µg/mL; MIC [7, 10]: 3.125 µg/mL; thermal denaturation reversibility [8]: reversible; Tm (melting temperature of the native protein structure) [8]: 74.94 °C; native fold remains intact up to [8]: approximately 70 °C
5 | CC[C@H](C)[C@H](NC(=O)[C@H](CS)NC(=O)[C@H](CC(N)=O)NC(=O)[C@H](CC(C)C)NC(=O)[C@H](CCC(N)=O)NC(=O)CNC(=O)CNC(=O)[C@H](CCC(N)=O)NC(=O)[C@H](Cc1c[nH]c2ccccc12)NC(=O)[C@H](CCC(=O)O)NC(=O)[C@H](CS)NC(=O)[C@H](CCCCN)NC(=O)CNC(=O)[C@H](CO)NC(=O)[C@@H](NC(=O)[C@@H](NC(=O)[C@H](CCCCN)NC(=O)[C@H](CO)NC(=O)[C@H](CCCCN)NC(=O)[C@H](CC(=O)O)NC(=O)[C@H](CO)NC(=O)[C@@H]1CCCN1C(=O)CNC(=O)[C@H](CO)NC(=O)[C@H](Cc1c[nH]cn1)NC(=O)[C@H](Cc1ccc(O)cc1)NC(=O)[C@@H](N)CCCCN)C(C)C)[C@@H](C)CC)C(=O)N[C@@H](C)C(=O)N[C@H](C(=O)O)[C@@H](C)O [Fr-1] (H-KYHSGPSDKSKVISGKCEWQGGQLNCIAT-OH; N-terminus and C-terminus assumed) | – | >100 | 100 (≈ 32 µM) | >100 | 100 (≈ 32 µM) | –
6 | NCCCC[C@H](NC(=O)CNC(=O)[C@H](CCCCN)NC(=O)[C@H](CC(N)=O)NC(=O)[C@H](CS)NC(=O)[C@@H](N)CS)C(=O)N[C@@H](CC(N)=O)C(=O)N[C@@H](CCCCN)C(=O)NCC(=O)N[C@@H](CO)C(=O)N[C@@H](Cc1c[nH]cn1)C(=O)O [Sh-Fr-4] (H-CCNKGKNKGSH-OH; N-terminus and C-terminus assumed) | prompt plasma membrane disruption effect | 50 (≈ 42.5 µM) | 50 (≈ 42.5 µM) | 50 (≈ 42.5 µM) | 50 (≈ 42.5 µM) | –
7 | NCCCC[C@H](NC(=O)[C@H](CCCCN)NC(=O)[C@H](Cc1c[nH]cn1)NC(=O)[C@H](CCCCN)NC(=O)[C@H](CS)NC(=O)[C@H](CC(N)=O)NC(=O)[C@@H](N)CC(N)=O)C(=O)NCC(=O)N[C@@H](CO)C(=O)NCC(=O)N[C@@H](CS)C(=O)O [Fr-4] (H-NNCKHKKGSGC-OH; N-terminus and C-terminus assumed) | prompt plasma membrane disruption effect | 50 (≈ 42.5 µM) | 50 (≈ 42.5 µM) | 50 (≈ 42.5 µM) | 50 (≈ 42.5 µM) | –
8 | CC[C@H](C)[C@H](NC(=O)[C@H](CS)NC(=O)[C@H](CC(N)=O)NC(=O)[C@H](CC(C)C)NC(=O)[C@H](CCC(N)=O)NC(=O)CNC(=O)CNC(=O)[C@H](CCC(N)=O)NC(=O)[C@H](Cc1c[nH]c2ccccc12)NC(=O)[C@H](CCC(=O)O)NC(=O)[C@H](CS)NC(=O)[C@H](CCCCN)NC(=O)CN)C(=O)N[C@@H](C)C(=O)N[C@H](C(=O)O)[C@@H](C)O [Fr-3] (H-GKCEWQGGQLNCIAT-OH; N-terminus and C-terminus assumed) | did not disrupt the plasma membrane | >100 | >100 | >100 | >100 | –
9 | KYHSGPSDKSKVIS [Fr-5] | – | >100 | >100 | >100 | >100 | –
10 | CC[C@H](C)[C@H](N)C(=O)N[C@@H](C)C(=O)N[C@H](C(=O)N[C@@H](CO)C(=O)N1CCC[C@H]1C(=O)N[C@@H](Cc1ccc(O)cc1)C(=O)N[C@@H](Cc1ccc(O)cc1)C(=O)N[C@@H](C)C(=O)N[C@@H](CS)C(=O)N[C@@H](CC(N)=O)C(=O)N[C@@H](CS)C(=O)N1CCC[C@H]1C(=O)N[C@@H](CC(N)=O)C(=O)N[C@@H](CC(N)=O)C(=O)N[C@@H](CS)C(=O)N[C@@H](CCCCN)C(=O)N[C@@H](Cc1c[nH]cn1)C(=O)N[C@@H](CCCCN)C(=O)N[C@@H](CCCCN)C(=O)NCC(=O)N[C@@H](CO)C(=O)NCC(=O)N[C@@H](CS)C(=O)O)[C@@H](C)O [Fr-2] (H-IATSPYYACNCPNNCKHKKGSGC-OH; N-terminus and C-terminus assumed) | prompt plasma membrane disruption effect | – | – | – | – | –
